Each block holds one compound with its values, some of them ahead of it.
Experiments:
[1] = tested on: HSV-2; details: in vitro; cited from earlier work
[2] = tested on: HIV; details: cited from earlier work
[3] = tested on: HIV-1; details: in vitro; cited from earlier work
[4] = tested on: HPVs; details: cited from earlier work
[5] = some people; cited from earlier work
[6] = parameters: species or system mice; details: mouse, in vivo
Source text: While it is not intended the present invention be limited to any specific formulation or dimension of silastic tubing, in one embodiment said silastic tubing was fabricated according to the following method. Tubing (0.078 in. inner diameter by 0.125 in. outer diameter; Dow Corning, Midland, Mich.) was filled with 17β-estradiol (1,3,5[10]-Estratriene-3, 17β) (Sigma Chemical Company, St. Louis, Mo.) mixed 1:3 (w/w) with silastic 382 medical grade elastomer (Dow Coming, St. Louis, Mo.). The mixture was allowed to dry and the tubing cut, in one embodiment, to a size (approximately 2×2×1 mm) which yielded a measurable circulating estradiol concentration of about 150-200 pg/ml in mice. It may be noted that this concentration of estradiol approximates the concentration of estrogen in women during the late follicular phase of the menstrual cycle.

[7] = tested on: HPV-11; experiment: HPV-11 infection of human vaginal xenografts engrafted in immunocompromised mouse, virus pre-treated with candidate microbicide; assay type: in vivo; details: HPV-11 treated with 0.05% SDS at 37° C. for 10 minutes, then placed in lumen of grafts engrafted ten days in immunocompromised mouse
Source text: In this example, human vaginal xenografts were infected with HPV by inoculating the lumen of said vaginal xenografts, engrafted into a non-human host, with HPV-11 stock virus suspensions prepared according to the methods presented in Example 1. […] Furthermore, it is not necessary to traumatize the walls of said grafts during inoculation to precipitate infection.
In experimental samples, candidate microbicides are mixed with HPV in vitro prior to administration of said HPV/candidate microbicide mixture to the lumen of a vaginal xenograft engrafted into a non-human host. In an alternative experimental embodiment, candidate microbicides were pre-administered to the vaginal lumen, before delivery of a pathogenic agent, into the same lumen.
Xenografts are harvested at 70-90 days and are screened for signs of virus replication. Said screening protocols include quantification of morphologic transformations, viral DNA and RNA synthesis, and protein synthesis. In addition, cell-free extracts of infected xenografts are tested by bioassay for the presence of infectious virus using standard procedures for infection and transformation of vaginal epithelium. […]

[8] = tested on: human vaginal xenograft epithelium; experiment: Survival and morphology of treated epithelium in the human vaginal xenograft; assay type: in vivo; details: grafts receiving virus treated with 0.05% SDS
Protocol: In this example, human vaginal xenografts engrafted for ten days in the subcutaneous space of an immunocompromised mouse were infected with 10 u l of HPV-11, or HPV-11 that had been treated with 0.05% SDS at 37° C. for 10 minutes and then placed in the lumen of the grafts. At varying intervals, the infected human xenografts (or portions thereof) were surgically removed and examined.

Compound: Nonoxynol-9 [N-9]
inactivation of HSV-2 [1]: inactivates | prevention of transmission of HIV to women [2]: has not been proven to prevent transmission | inactivation of HIV-1 [3]: inactivates | inactivation of / effectiveness against HPVs [4]: does not inactivate HPVs | irritation and ulceration [5]: may cause irritation and ulceration in some people

circulating estradiol concentration [6]: 150 to 200 pg/mL
Compound: C[C@]12CC[C@@H]3c4ccc(O)cc4CC[C@H]3[C@@H]1CC[C@@H]2O [17β-estradiol, 17β-estradiol (1,3,5[10]-Estratriene-3, 17β)]

Compound: CCCCCCCCCCCCOS(=O)(=O)[O-].[Na+] [SDS, Sodium Dodecyl Sulfate]
prevention of virus infection (papillomatous transformation, virus DNA, virus protein) [7]: effectively prevented virus infection | killing of treated epithelium in the vaginal xenograft [8]: did not kill the treated epithelium | morphology of tissues receiving treated virus [8]: stratified squamous epithelium with a morphology analogous to normal in situ vagina
